Measured values published in patent publication US9718790B2, “Triazine derivative and pharmaceutical composition having an analgesic activity comprising the same” (SHIONOGI & CO., LTD., priority 2010, dated 2017).
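Also: stimulus was 50 nM ATP with fluorescence followed for 3 min, and the response per well was peak post-ATP fluorescence divided by the reading at measurement start.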

What follows are compounds tested against human P2X3 receptor (Homo sapiens (Human), UniProt P56373) (assay: Evaluation of human P2X3 receptor inhibitory activity (Fluo-3 calcium fluorescence, FDSS 3000, ATP stimulation)). Conditions: C6BU-1 cells stably expressing human P2X3 receptor, Fluo-3 fluorescence, FDSS 3000.
Chain of human P2X3 receptor (P56373 whole entry): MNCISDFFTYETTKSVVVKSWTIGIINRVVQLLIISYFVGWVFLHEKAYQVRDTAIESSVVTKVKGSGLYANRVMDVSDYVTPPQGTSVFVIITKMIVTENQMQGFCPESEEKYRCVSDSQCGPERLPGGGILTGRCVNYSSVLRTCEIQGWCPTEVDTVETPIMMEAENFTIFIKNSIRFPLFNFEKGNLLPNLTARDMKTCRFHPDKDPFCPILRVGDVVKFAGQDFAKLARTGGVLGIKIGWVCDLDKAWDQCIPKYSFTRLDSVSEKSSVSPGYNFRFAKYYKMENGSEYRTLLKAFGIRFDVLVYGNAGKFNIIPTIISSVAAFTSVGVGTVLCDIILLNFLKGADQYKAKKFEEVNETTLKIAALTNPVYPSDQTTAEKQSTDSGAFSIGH
Type: cell-based
CCN(c1ccc(/N=c2\[nH]c(=O)n(C[C@H](C)C(=O)O)c(=O)n2Cc2ccc(Cl)cc2)cc1)C(C)C [Compound I-0963] showed an IC50 of 662 nM. In the case of COC(=O)[C@H](C)[C@H](C)n1c(=O)[nH]/c(=N\c2ccc(OCC3CC3)cc2)n(Cc2ccc(C)cc2)c1=O [Compound I-0965], the IC50 is reported as 21 nM. Work on CCOc1ccc(/N=c2\[nH]c(=O)n([C@@H](C)[C@@H](C)C(=O)OC)c(=O)n2Cc2ccc(C)cc2)cc1Cl [Compound I-0966] yielded an IC50 of 17 nM. COC(=O)[C@H](C)[C@H](C)n1c(=O)[nH]/c(=N\c2ccc(OC(C)C)c(F)c2)n(Cc2ccc(C)cc2)c1=O [Compound I-0967] gave an IC50 of 19 nM. In the case of Cc1ccc(Cn2c(=O)n(CCC(=O)O)c(=O)[nH]/c2=N\c2ccc(OCC3CC3)c(Cl)c2)cc1 [Compound I-0968], the IC50 is reported as 107 nM. Work on COC(=O)[C@H](C)[C@H](C)n1c(=O)[nH]/c(=N\c2ccc(OCC3CC3)c(Cl)c2)n(Cc2ccc(C)cc2)c1=O [Compound I-0969] yielded an IC50 of 47 nM. With CCOC(=O)C1(Cn2c(=O)[nH]/c(=N\c3ccc(OCC4CC4)c(Cl)c3)n(Cc3ccc(C)cc3)c2=O)CC1 [Compound I-0970] the IC50 was 20 nM. Cc1ccc(Cn2c(=O)n(C[C@H](C)C(=O)O)c(=O)[nH]/c2=N\c2ccc(OCC3CC3)c(Cl)c2)cc1 [Compound I-0971] was tested, and the IC50 was 30 nM. In the case of Cc1ccc(Cn2c(=O)n([C@@H](C)[C@@H](C)C(=O)O)c(=O)[nH]/c2=N\c2ccc(OCC3CC3)cc2)cc1 [Compound I-0972], the IC50 is reported as 38 nM. Compound CCOc1ccc(/N=c2\[nH]c(=O)n([C@@H](C)[C@@H](C)C(=O)O)c(=O)n2Cc2ccc(C)cc2)cc1Cl [Compound I-0973] has an IC50 of 19 nM. Cc1ccc(Cn2c(=O)n([C@@H](C)[C@@H](C)C(=O)O)c(=O)[nH]/c2=N\c2ccc(OC(C)C)c(F)c2)cc1 [Compound I-0974] showed an IC50 of 29 nM. For Cc1ccc(Cn2c(=O)n([C@@H](C)[C@@H](C)C(=O)O)c(=O)[nH]/c2=N\c2ccc(OCC3CC3)c(Cl)c2)cc1 [Compound I-0975], the IC50 was 43 nM. Cc1ccc(Cn2c(=O)n(CC3(C(=O)O)CC3)c(=O)[nH]/c2=N\c2ccc(OCC3CC3)c(Cl)c2)cc1 [Compound I-0976] was tested, and the IC50 was 69 nM. COC(=O)CC1(Cn2c(=O)[nH]/c(=N\c3ccc(OC(C)C)c(Cl)c3)n(Cc3ccc(Cl)cc3)c2=O)CC1 [Compound I-0977] gave an IC50 of 15 nM. With COC(=O)CC1(Cn2c(=O)[nH]/c(=N\c3ccc(OC(C)C)c(C)c3)n(Cc3ccc(Cl)cc3)c2=O)CC1 [Compound I-0978] the IC50 was 13 nM. COC(=O)CC1(Cn2c(=O)[nH]/c(=N\c3ccc(OC(C)C)c(Cl)c3)n(Cc3ccc(C)cc3)c2=O)CC1 [Compound I-0979] was tested, and the IC50 was 6 nM. With COC(=O)CC1(Cn2c(=O)[nH]/c(=N\c3ccc(OC(C)C)c(C)c3)n(Cc3ccc(C)cc3)c2=O)CC1 [Compound I-0980] the IC50 was 11 nM. Compound CC(C)Oc1ccc(/N=c2\[nH]c(=O)n(CC3(CC(=O)O)CC3)c(=O)n2Cc2ccc(Cl)cc2)cc1Cl [Compound I-0981] has an IC50 of 10 nM. Compound Cc1cc(/N=c2\[nH]c(=O)n(CC3(CC(=O)O)CC3)c(=O)n2Cc2ccc(Cl)cc2)ccc1OC(C)C [Compound I-0982] has an IC50 of 17 nM. In the case of Cc1ccc(Cn2c(=O)n(CC3(CC(=O)O)CC3)c(=O)[nH]/c2=N\c2ccc(OC(C)C)c(Cl)c2)cc1 [Compound I-0983], the IC50 is reported as 7 nM. Cc1ccc(Cn2c(=O)n(CC3(CC(=O)O)CC3)c(=O)[nH]/c2=N\c2ccc(OC(C)C)c(C)c2)cc1 [Compound I-0984] gave an IC50 of 21 nM. Compound CCCOc1ccc(/N=c2\[nH]c(=O)n(CC3(C(=O)O)CC3)c(=O)n2Cc2ccc(Cl)cc2)cc1Cl [Compound I-0986] has an IC50 of 31 nM. Compound CCOC(=O)C1(Cn2c(=O)[nH]/c(=N\c3ccc(OC(C)C)cc3)n(Cc3ccc(Cl)cc3)c2=O)CC1 [Compound I-0987] has an IC50 of 15 nM. For CC(C)Oc1ccc(/N=c2\[nH]c(=O)n(CC3(C(=O)O)CC3)c(=O)n2Cc2ccc(Cl)cc2)cc1 [Compound I-0988], the IC50 was 93 nM. COC(=O)[C@@H](C)Cn1c(=O)[nH]/c(=N\c2ccc(Oc3ccccc3)cc2)n(Cc2ccc(Cl)cc2)c1=O [Compound I-0989, (S)-1-(4-chlorobenzyl)-3-(2-methoxycarbonylpropyl)-6-(4-phenoxy-phenylimino)-1,3,5-triazinane-2,4-dion] showed an IC50 of 68 nM. Work on COC(=O)[C@@H](C)Cn1c(=O)[nH]/c(=N\c2ccc(Oc3ccccc3)cc2)n(Cc2ccc(C)cc2)c1=O [Compound I-0990] yielded an IC50 of 51 nM. Work on C[C@@H](Cn1c(=O)[nH]/c(=N\c2ccc(Oc3ccccc3)cc2)n(Cc2ccc(Cl)cc2)c1=O)C(=O)O [Compound I-0991, (S)-1-(4-chlorobenzyl)-3-(2-hydroxycarbonylpropyl)-6-(4-phenoxyphenylimino)-1,3,5-triazinane-2,4-dion] yielded an IC50 of 22 nM. In the case of Cc1ccc(Cn2c(=O)n(C[C@H](C)C(=O)O)c(=O)[nH]/c2=N\c2ccc(Oc3ccccc3)cc2)cc1 [Compound I-0992], the IC50 is reported as 24 nM. For COCO[C@@H](Cn1c(=O)[nH]/c(=N\c2ccc(OC(C)C)c(C)c2)n(Cc2ccc(Cl)cc2)c1=O)C(=O)OC [Compound I-0993, (S)-1-(4-chlorobenzyl)-6-(3-mehyl-4-isopropoxyphenylimino)-3-[2-methoxycarbonyl-2-(methoxymethyloxy)ethyl]-1,3,5-triazinane-2,4-dion], the IC50 was 20 nM. With COC(=O)[C@@H](O)Cn1c(=O)[nH]/c(=N\c2ccc(OC(C)C)c(C)c2)n(Cc2ccc(Cl)cc2)c1=O [Compound I-0994, (S)-1-(4-chlorobenzyl)-6-(3-mehyl-4-isopropoxyphenylimino)-3-(2-methoxycarbonyl-2-hydroxyethyl)-1,3,5-triazinane-2,4-dion] the IC50 was 20 nM. C=C(C)c1ccc(Cn2c(=O)n(C[C@H](C)C(=O)OC)c(=O)[nH]/c2=N\c2ccc(OC(C)C)c(C)c2)cc1 [Compound I-0995] showed an IC50 of 276 nM. Work on COC(=O)C(=O)Cn1c(=O)[nH]/c(=N\c2ccc(OC(C)C)c(C)c2)n(Cc2ccc(Cl)cc2)c1=O [Compound I-0996, 1-(4-chlorobenzyl)-6-(3-mehyl-4-isopropoxyphenylimino)-3-(2-methoxycarbonyl-2-oxoethyl)-1,3,5-triazinane-2,4-dion] yielded an IC50 of 32 nM. Work on COC(=O)[C@@H](C)Cn1c(=O)[nH]/c(=N\c2ccc(OC(C)C)c(C)c2)n(Cc2ccc(C(C)C)cc2)c1=O [Compound I-0997] yielded an IC50 of 680 nM. Work on COC(=O)[C@@H](C)Cn1c(=O)[nH]/c(=N\c2ccc(Cl)c(Cl)c2)n(Cc2ccc(C)cc2)c1=O [Compound I-0998] yielded an IC50 of 24 nM. COC(=O)[C@@H](C)Cn1c(=O)[nH]/c(=N\c2ccc(OC(F)(F)F)cc2)n(Cc2ccc(C)cc2)c1=O [Compound I-0999] was tested, and the IC50 was 174 nM. With COC(=O)[C@@H](C)Cn1c(=O)[nH]/c(=N\c2ccc(Cl)c(C(F)(F)F)c2)n(Cc2ccc(C)cc2)c1=O [Compound I-1000] the IC50 was 116 nM. C=C(C)c1ccc(Cn2c(=O)n(C[C@H](C)C(=O)O)c(=O)[nH]/c2=N\c2ccc(OC(C)C)c(C)c2)cc1 [Compound I-1001] gave an IC50 of 292 nM. With Cc1ccc(Cn2c(=O)n(C[C@H](C)C(=O)O)c(=O)[nH]/c2=N\c2ccc(OC(F)(F)F)cc2)cc1 [Compound I-1002] the IC50 was 298 nM. With Cc1ccc(Cn2c(=O)n(C[C@H](C)C(=O)O)c(=O)[nH]/c2=N\c2ccc(Cl)c(C(F)(F)F)c2)cc1 [Compound I-1003] the IC50 was 229 nM. For Cc1ccc(Cn2c(=O)n(C[C@H](C)C(=O)O)c(=O)[nH]/c2=N\c2ccc(Cl)c(Cl)c2)cc1 [Compound I-1004], the IC50 was 85 nM. Work on CCCCOc1ccc(/N=c2\[nH]c(=O)n(CC3(C(=O)OCC)CC3)c(=O)n2Cc2ccc(Cl)cc2)cc1 [Compound I-1005] yielded an IC50 of 31 nM. CCOC(=O)C1(Cn2c(=O)[nH]/c(=N\c3ccc(OCC(C)C)cc3)n(Cc3ccc(Cl)cc3)c2=O)CC1 [Compound I-1007] was tested, and the IC50 was 15 nM. Cc1cc(/N=c2\[nH]c(=O)n(CC(=O)C(=O)O)c(=O)n2Cc2ccc(Cl)cc2)ccc1OC(C)C [Compound I-1009] was tested, and the IC50 was 69 nM. With CC(C)Oc1ccc(/N=c2\[nH]c(=O)n(CC3(CO)COC3)c(=O)n2Cc2ccc(Cl)cc2)cc1Cl [Compound I-1010] the IC50 was 4 nM. CC(C)Oc1ccc(/N=c2\[nH]c(=O)n(CC3(C(=O)O)COC3)c(=O)n2Cc2ccc(Cl)cc2)cc1Cl [Compound I-1011] was tested, and the IC50 was 21 nM. With CC(C)Oc1ccc(/N=c2\[nH]c(=O)n(CC(CO)(CO)C(=O)O)c(=O)n2Cc2ccc(Cl)cc2)cc1Cl [Compound I-1012] the IC50 was 51 nM. CC[C@@H](C)Oc1ccc(/N=c2\[nH]c(=O)n(C[C@H](C)C(=O)O)c(=O)n2Cc2ccc(C)cc2)cc1Cl [Compound I-1013] was tested, and the IC50 was 5 nM. CC[C@H](C)Oc1ccc(/N=c2\[nH]c(=O)n(C[C@H](C)C(=O)O)c(=O)n2Cc2ccc(C)cc2)cc1Cl [Compound I-1014] was tested, and the IC50 was 17 nM. CC[C@@H](C)Oc1ccc(/N=c2\[nH]c(=O)n(C[C@H](C)C(=O)OC)c(=O)n2Cc2ccc(C)cc2)cc1Cl [Compound I-1015] was tested, and the IC50 was 7 nM. CC[C@H](C)Oc1ccc(/N=c2\[nH]c(=O)n(C[C@H](C)C(=O)OC)c(=O)n2Cc2ccc(C)cc2)cc1Cl [Compound I-1016] gave an IC50 of 17 nM. With Cc1cc(/N=c2\[nH]c(=O)n(C[C@H](C)C(=O)O)c(=O)n2Cc2ccc(C(C)C)cc2)ccc1OC(C)C [Compound I-1017] the IC50 was 550 nM. CCOC(=O)CCn1c(=O)[nH]/c(=N\c2ccc(O[C@H](C)CC)cc2)n(Cc2ccc(C)cc2)c1=O [Compound I-1018] gave an IC50 of 8 nM. With CCOC(=O)CCn1c(=O)[nH]/c(=N\c2ccc(O[C@H](C)CC)c(C)c2)n(Cc2ccc(C)cc2)c1=O [Compound I-1019] the IC50 was 7 nM. For CCOC(=O)CCn1c(=O)[nH]/c(=N\c2ccc(O[C@H](C)CC)c(Cl)c2)n(Cc2ccc(C)cc2)c1=O [Compound I-1020], the IC50 was 6 nM. Work on CCOC(=O)CCn1c(=O)[nH]/c(=N\c2ccc(O[C@H](C)C(F)(F)F)cc2)n(Cc2ccc(C)cc2)c1=O [Compound I-1021] yielded an IC50 of 7 nM. With COC(=O)[C@@H](C)Cn1c(=O)[nH]/c(=N\c2ccc(OC(F)F)c(Cl)c2)n(Cc2ccc(C)cc2)c1=O [Compound I-1022] the IC50 was 14 nM. COC(=O)[C@@H](C)Cn1c(=O)[nH]/c(=N\c2ccc(CCC3CC3)c(C)c2)n(Cc2ccc(Cl)cc2)c1=O [Compound I-1023] gave an IC50 of 300 nM. Cc1cc(/N=c2\[nH]c(=O)n(C[C@H](C)C(=O)O)c(=O)n2Cc2ccc(Cl)cc2)ccc1CCC1CC1 [Compound I-1024] was tested, and the IC50 was 161 nM.
